Molecular target: His-GST tagged PARG (Homo sapiens, UniProt Q86W56)
Test: In vitro PARG assay (TR-FRET)
Assay type: biochemical
Settings: 4 pM His-GST tagged PARG, 30 nM Bio PARylated PARP1 substrate, 20 min at room temperature, TR-FRET Em 665/Em 615
Protocol: The in vitro PARG assay experiment was conducted in a standard 384-well plate with a total volume of 15 µL. To a 384-well plate containing the test compound was added 5 µL of an enzyme reaction mixture (50 mM Tris-HCL pH 7.5, 50 mM KCL, 0.01% Triton X-100, 0.01% BSA, and 4 pM His-GST tagged PARG). The plate was incubated at room temperature for 10 min, and then 5 µL of a substrate mixture (50 mM Tris-HCL pH 7.5, 50 mM KCL, 0.01% Triton X-100, 0.01% BSA, and 30 nM Bio PARylated PARP1) was added to initiate the reaction. The plate was further incubated at room temperature for 20 min, and then 5 µL of a detection reagent was added to terminate the reaction. The detection reagent was prepared from a buffer (50 mM Tris-HCl pH 7.5, 50 mM KCL, 0.01% Triton X-100, and 0.01% BSA), 3 µM compound PDD00017273, 1.5× Mab anti-6HIS XL665 (Cisbio: 61HISXLA), and 1.5× streptavidin terbium cryptate (Cisbio: 610SATLA). The final concentrations of the compound PDD00017273, the 1.5× Mab anti-6HIS XL665 (Cisbio: 61HISXLA), and the 1.5× streptavidin terbium cryptate were 1 µM, 0.5×, and 0.5×, respectively. After incubation in the dark at room temperature for 120 min, TR-FRET signals were measured at Ex 340, Em 665, and Em 615. The ratio for each well was calculated as Em 665/Em 615 (the ratio here corresponds to the ratio of fluorescence signals at the wavelengths).

His-GST tagged PARG, sequence (Q86W56 whole entry): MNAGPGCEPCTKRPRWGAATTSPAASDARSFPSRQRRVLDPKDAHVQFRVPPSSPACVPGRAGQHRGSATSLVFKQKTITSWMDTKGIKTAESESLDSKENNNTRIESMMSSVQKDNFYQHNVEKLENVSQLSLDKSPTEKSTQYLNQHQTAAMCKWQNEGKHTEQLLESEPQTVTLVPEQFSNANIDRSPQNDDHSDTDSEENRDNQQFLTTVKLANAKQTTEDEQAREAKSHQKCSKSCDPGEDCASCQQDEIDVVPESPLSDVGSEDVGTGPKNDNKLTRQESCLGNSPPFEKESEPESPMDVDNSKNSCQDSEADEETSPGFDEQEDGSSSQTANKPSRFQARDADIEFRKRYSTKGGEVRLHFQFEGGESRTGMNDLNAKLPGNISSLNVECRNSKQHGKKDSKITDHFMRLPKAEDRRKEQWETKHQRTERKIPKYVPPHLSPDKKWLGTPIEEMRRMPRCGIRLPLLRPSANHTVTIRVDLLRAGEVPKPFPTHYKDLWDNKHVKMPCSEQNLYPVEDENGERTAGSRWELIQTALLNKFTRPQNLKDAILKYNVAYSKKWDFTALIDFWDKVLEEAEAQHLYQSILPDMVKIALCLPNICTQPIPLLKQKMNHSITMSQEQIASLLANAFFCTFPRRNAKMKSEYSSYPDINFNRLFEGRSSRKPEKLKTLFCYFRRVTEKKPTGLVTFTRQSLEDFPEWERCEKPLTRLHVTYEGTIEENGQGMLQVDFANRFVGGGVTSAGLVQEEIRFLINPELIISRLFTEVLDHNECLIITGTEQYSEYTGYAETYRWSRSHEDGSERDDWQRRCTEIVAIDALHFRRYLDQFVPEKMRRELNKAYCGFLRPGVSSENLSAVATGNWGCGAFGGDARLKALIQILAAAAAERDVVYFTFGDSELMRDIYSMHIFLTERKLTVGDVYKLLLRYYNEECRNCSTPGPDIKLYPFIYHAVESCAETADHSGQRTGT

SMILES | IC50
N#CC1(NS(=O)(=O)c2cc(N3CCN(C(=O)CO)CC3)c3cnn(-c4nnc(C(F)F)s4)c3c2)CC1 [EVO29103] | < 100 nM
C[C@@H]1CN(c2cc(S(=O)(=O)NC3(C#N)CC3)cc3c2c(F)nn3-c2nnc(C(F)F)s2)CCN1C(=O)[C@@](C)(O)C(F)(F)F [EVO29761] | < 100 nM
C[C@@H]1CN(c2cc(S(=O)(=O)NC3(C#N)CC3)cc3c2cnn3-c2nnc(C(F)F)s2)CCN1C(=O)C(O)C(C)(C)CF (single isomer, unassigned) [EVO29751P1] | < 100 nM
Cc1nnc(-n2ncc3c(N4CCN(C(=O)[C@@H](C)O)[C@H](C)C4)cc(S(=O)(=O)NC4(C#N)CC4)cc32)s1 [EVO29336] | < 100 nM
C[C@@H]1CN(c2cc(S(=O)(=O)NC3(C#N)CC3)cc3c2ccn3-c2nnc(C(F)F)s2)CCN1C(=O)[C@H](O)C(C)(C)C [EVO29788] | < 100 nM
CCOC(C(=O)N1CCN(c2cc(S(=O)(=O)NC3(C#N)CC3)cc3c2cnn3-c2nnc(C(F)F)s2)C[C@H]1C)C1CC1 (single isomer, unassigned) [EVO29710P2] | < 100 nM
C[C@@H]1CN(c2c(F)c(S(=O)(=O)NC3(C#N)CC3)cc3c2c(F)nn3-c2nnc(C(F)F)s2)CCN1C(=O)[C@H](O)C(C)(C)C [EVO29792] | 100 to 500 nM
CCOC(C(=O)N1CCN(c2cc(S(=O)(=O)NC3(C#N)CC3)cc3c2cnn3-c2nnc(C(F)F)s2)C[C@H]1C)C1CC1 (single isomer, unassigned) [EVO29710P1] | < 100 nM
CO[C@@H](C(=O)N1CCN(c2cc(S(=O)(=O)NC3(C)CC3)cc3c2cnn3-c2nnc(C)s2)C[C@H]1C)C(C)C [EVO29421] | < 100 nM
C[C@@H]1CN(c2cc(S(=O)(=O)NC3(C#N)CC3)cc3c2c(F)nn3-c2nnc(C(F)F)s2)CCN1C(=O)[C@H](O)C(C)(C)C [EVO29757] | < 100 nM
C[C@@H]1CN(c2cc(S(=O)(=O)NC3(C#N)CC3)cc3c2cnn3-c2nnc(C(F)F)s2)CCN1C(=O)[C@](C)(O)C(F)(F)F [EVO29462] | < 100 nM
C[C@@H]1CN(c2cc(S(=O)(=O)NC3(C#N)CC3)cc3c2cnn3-c2nnc(C(F)F)s2)CCN1C(=O)[C@H](O)C(C)(C)C [EVO29451] | < 100 nM
C[C@@H]1CN(c2cc(S(=O)(=O)NC3(C#N)CC3)cc3c2cnn3-c2nnc(C(F)F)s2)CCN1C(=O)C(O)C(C)(C)CO (single isomer, unassigned) [EVO29790P1] | < 100 nM
CO[C@H](C)C(=O)N1CCN(c2cc(S(=O)(=O)NC3(C)CC3)cc3c2cnn3-c2nnc(C)s2)C[C@H]1C [EVO29412] | < 100 nM
CO[C@@H](C(=O)N1CCN(c2cc(S(=O)(=O)NC3(C#N)CC3)cc3c2cnn3-c2nnc(C(F)F)s2)C[C@H]1C)C(C)(C)C [EVO29736] | < 100 nM
CO[C@@H](C(=O)N1CCN(c2cc(S(=O)(=O)NC3(C#N)CC3)cc3c2cnn3-c2nnc(C(F)F)s2)C[C@H]1C)C(C)C [EVO29418] | < 100 nM
Cc1nnc(-n2ncc3c(N4CCN(C(=O)C(=O)C(C)C)[C@H](C)C4)cc(S(=O)(=O)NC4(C#N)CC4)cc32)s1 [EVO29385] | < 100 nM
COC(C(=O)N1CCN(c2cc(S(=O)(=O)NC3(C#N)CC3)cc3c2cnn3-c2nnc(C(F)F)s2)C[C@H]1C)C1CC1 (single isomer, unassigned) [EVO29715P1] | < 100 nM
C[C@@H]1CN(c2cc(S(=O)(=O)NC3(C#N)CC3)cc3c2cnn3-c2nnc(C(F)F)s2)CCN1C(=O)C(O)C(C)(C)CF (single isomer, unassigned) [EVO29751P2] | < 100 nM
COC(C(=O)N1CCN(c2cc(S(=O)(=O)NC3(C#N)CC3)cc3c2cnn3-c2nnc(C(F)F)s2)C[C@H]1C)C1CC1 (single isomer, unassigned) [EVO29715P2] | < 100 nM
C[C@@H]1CN(c2cc(S(=O)(=O)NC3(C#N)CC3)cc3c2cnn3-c2nnc(C(F)F)s2)CCN1C(=O)C(O)C1CC1 (single isomer, unassigned) [EVO29534] | < 100 nM
CC(C)(C)[C@@H](O)C(=O)N1CCN(c2cc(S(=O)(=O)NC3(C#N)CC3)cc3c2cnn3-c2nnc(C(F)F)s2)C[C@H]1CF [EVO29778] | < 100 nM
Cc1nnc(-n2ncc3c(N4CCN(C(=O)[C@@H](N)CO)[C@H](C)C4)cc(S(=O)(=O)NC4(C)CC4)cc32)s1 [EVO29314] | 100 to 500 nM
Cc1nnc(-n2ncc3c(N4CCN(C(=O)C(=O)C(C)(C)C)[C@H](C)C4)cc(S(=O)(=O)NC4(C#N)CC4)cc32)s1 [EVO29407] | < 100 nM
CO[C@H](C)C(=O)N1CCN(c2cc(S(=O)(=O)NC3(C#N)CC3)cc3c2cnn3-c2nnc(C(F)F)s2)C[C@H]1C [EVO29409] | < 100 nM

Continued, values first:

IC50 | SMILES
< 100 nM | CCOC(C)(C)C(=O)N1CCN(c2cc(S(=O)(=O)NC3(C)CC3)cc3c2cnn3-c2nnc(C(F)F)s2)C[C@H]1C [EVO29507]
< 100 nM | C[C@@H]1CN(c2cc(S(=O)(=O)NC3(C#N)CC3)cc3c2cnn3-c2nnc(C(F)F)s2)CCN1C(=O)C(N)=O [EVO29298]
< 100 nM | C[C@@H]1CN(c2cc(S(=O)(=O)NC3(C)CC3)cc3c2cnn3-c2nnc(C(F)F)s2)CCN1C(=O)C(C)(C)O [EVO29469]
< 100 nM | Cc1nnc(-n2ncc3c(N4CCN(C(=O)C(=O)C(C)C)[C@H](C)C4)cc(S(=O)(=O)NC4(C)CC4)cc32)s1 [EVO29384]
< 100 nM | CC(C)C(=O)C(=O)N1CCN(c2cc(S(=O)(=O)NC3(C#N)CC3)cc3c2cnn3-c2nnc(C(F)F)s2)C[C@H]1C [EVO29291]
< 100 nM | C[C@@H]1CN(c2cc(S(=O)(=O)NC3(C)CC3)cc3c2cnn3-c2nnc(C(F)F)s2)CCN1C(=O)C(=O)C(C)(C)C [EVO29406]
< 100 nM | C[C@@H]1CN(c2cc(S(=O)(=O)NC3(C#N)CC3)cc3c2cnn3-c2nnc(C(F)F)s2)CCN1C(=O)C(=O)C(C)(C)C [EVO29405]
< 100 nM | C[C@@H]1CN(c2cc(S(=O)(=O)NC3(C)CC3)cc3c2cnn3-c2nnc(C(F)F)s2)CCN1C(=O)[C@@H](C)O [EVO29337]
< 100 nM | Cc1nnc(-n2ncc3c(N4CCN(C(=O)[C@@H](C)O)[C@H](C)C4)cc(S(=O)(=O)NC4(C)CC4)cc32)s1 [EVO29338]
< 100 nM | C[C@@H]1CN(c2cc(S(=O)(=O)NC3(C#N)CC3)cc3c2cnn3-c2nnc(C(F)F)s2)CCN1C(=O)C(C)(C)O [EVO29339]
< 100 nM | CC(C)C(=O)C(=O)N1CCN(c2cc(S(=O)(=O)NC3(C)CC3)cc3c2cnn3-c2nnc(C(F)F)s2)C[C@H]1C [EVO29383]
< 100 nM | C[C@@H]1CN(c2cc(S(=O)(=O)NC3(C#N)CC3)cc3c2cnn3-c2nnc(C(F)F)s2)CCN1C(=O)[C@@H](C)O [EVO29285]
< 100 nM | CC(=O)C(=O)N1CCN(c2cc(S(=O)(=O)NC3(C)CC3)cc3c2cnn3-c2nnc(C(F)F)s2)C[C@H]1C [EVO29388]
< 100 nM | CO[C@H](C)C(=O)N1CCN(c2cc(S(=O)(=O)NC3(C)CC3)cc3c2cnn3-c2nnc(C(F)F)s2)C[C@H]1C [EVO29410]
< 100 nM | CO[C@@H](C(=O)N1CCN(c2cc(S(=O)(=O)NC3(C)CC3)cc3c2cnn3-c2nnc(C(F)F)s2)C[C@H]1C)C(C)C [EVO29419]
< 100 nM | CC(C)[C@@H](O)C(=O)N1CCN(c2cc(S(=O)(=O)NC3(C#N)CC3)cc3c2cnn3-c2nnc(C(F)F)s2)C[C@H]1C [EVO29335]
< 100 nM | C[C@@H]1CN(c2cc(S(=O)(=O)NC3(C)CC3)cc3c2cnn3-c2nnc(C(F)F)s2)CCN1C(=O)C(=O)C1CC1 [EVO29387]

Reference: patent EP4559912A1, “SULFUR-CONTAINING HETEROAROMATIC RING COMPOUND, PHARMACEUTICAL COMPOSITION THEREOF, AND USE THEREOF” (Evopoint Biosciences Co., Ltd., priority 2022, dated 2024)
